The structures appear in SMILES notation.

The data set is described as follows: gradient 5% acetonitrile 3 min, to 50% in 2 min, to 85% in 15 min, held 3 min, 100 µL/min. The settings on record: column: Zorbax Extend-C18 2.1 x 50 mm; eluents: water / acetonitrile, 0.1% formic acid. Summed up: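 Using water and acetonitrile that each contained 0.1% formic acid, mixtures of ~100 pure standards were separated at 100 μL/min on a Zorbax Extend-C18 column (2.1 × 50 mm, 1.8 μm). The HPLC fed a quadrupole time-of-flight mass spectrometer working in positive and negative ionization mode, with dead and dwell volumes of 40 μL and 900 μL. Data were acquired over 3 months. Retention time was read from computationally picked adduct peaks after manual inspection of each.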
`COc1ccc(N2CCN(CCNc3cc(C(=O)O)c4ccccc4n3)CC2)cc1`: the RP-LC retention time came out at 919 s.
In the case of `Cc1ccc(NC(=O)N2CCc3nc(-c4ccccc4)ncc3C2)cc1C` it was 995 s; in that of `COc1ccc(S(=O)(=O)N2CCc3nc(-c4ccccc4)ncc3C2)cc1Cl`, 1090 s; in that of `CC(C)C(=O)n1nc(-c2ccc(Cl)cc2)nc1N`, 1050 s.
As for `COc1ccc(CNC(=O)c2cn3cc(Cl)ccc3n2)cc1OC`, the figure is 749 s; as for `O=C(NC1CCc2ccccc21)C1CCN(Cc2noc(-c3ccc(F)cc3)n2)CC1` (stereo unspecified), 683 s; as for `CCCn1c(=O)sc2cc(S(=O)(=O)N3CCC(C(=O)N4CCCC4)CC3)ccc21`, 807 s.
As for `Cc1nc2cc(-c3noc(Cc4cccs4)n3)ccc2n(C2CCCC2)c1=O`, the figure is 1200 s.
The compound `COCCNC(=O)N1CCCn2nc(-c3ccc(C(F)(F)F)cc3)cc2C1` showed an RP-LC retention time of 839 s.
In the case of `CC(C)(C)NC(=O)Cc1cccn1-c1cccc(Cl)c1` it was 1010 s; in that of `CCCC(C)NC(=O)c1ccc2c(c1)CCCN2S(=O)(=O)CC` (stereo unspecified), 872 s.
In the case of `CCN1CCN(C(=O)CN2C(=O)CCCc3cc(S(=O)(=O)N4CCC(C)CC4)ccc32)CC1` it was 643 s; in that of `O=C1NC2(CCN(C(=O)NCc3ccc(F)cc3)CC2)Nc2cc(Cl)ccc21`, 740 s; in that of `COc1ccc(S(=O)(=O)N2CCCC(C(=O)Nc3cc(C)ccc3C)C2)cc1Cl` (stereo unspecified), 1040 s.
In the case of `CN1C(=O)c2cc(C(=O)NC3CCCC3)nn2CC1(C)C(=O)NCc1ccc(F)cc1` (stereo unspecified) it was 719 s.
Regarding `CC(=O)c1sc(NC(=O)c2ccn(C)n2)nc1C`, the RP-LC retention time was found to be 630 s.
As for `Cc1cc(CNC(=O)C2CCCC2)c(C)o1`, the figure is 762 s; as for `COc1ccccc1OCCNS(=O)(=O)c1cc2n(c1)CCCNC2=O`, 654 s.
In the case of `CC(=O)N1CCc2sc(C(=O)NCc3ccc4c(c3)OCO4)cc2C1` it was 682 s.
As for `COCCN1CCC2(CCC1=O)CCN(C(=O)Nc1ccc(Br)cc1)CC2`, the figure is 740 s; as for `COc1ccc(-c2ccc(=O)n(Cc3nc(-c4ccc(Br)cc4)no3)n2)cc1`, 1040 s; as for `COc1ccc2[nH]c(=O)c(CCC(=O)O)cc2c1`, 712 s.
`Cc1ccc(-c2nc(-c3ccc(S(=O)(=O)N4CCOCC4)cc3)no2)cc1F` yielded an RP-LC retention time of 1190 s.
As for `CCNC(=O)N(CC(=O)N1CCc2sccc2C1COc1ccc(C)cc1)CC1CC1` (stereo unspecified), the figure is 935 s; as for `COc1ccc(Cc2nnc3sc(-c4ccc(N(C)C)cc4)nn23)cc1`, 1090 s.
In the case of `CC(=O)Nc1ccc(CCc2nc3ccc(C(=O)NCCC(C)C)cc3[nH]2)cc1` it was 630 s.
As for `CC(NC(=O)C(=O)N1CCCCC1)C(c1cccs1)N1CCN(c2ccc(F)cc2)CC1` (stereo unspecified), the figure is 760 s; as for `Cn1nnc2ccc(-c3noc(COc4ccc(F)cc4)n3)cc21`, 924 s; as for `O=C(Cn1nnc2ccccc2c1=O)N1CCN(c2ncccn2)CC1`, 629 s.
`O=C(NCc1ccccn1)C1CCN(c2nc3cccnc3s2)CC1` had an RP-LC retention time of 588 s.
In the case of `CNC(=O)[C@@H]1CN(S(=O)(=O)C(C)C)C[C@H]1c1n[nH]c(C)n1` it was 570 s; in that of `O=c1c(Br)c(-c2ccccc2)[nH]c2ccccc12`, 715 s.
As for `CCc1nnc(-c2cccs2)o1`, the figure is 731 s; as for `CC(C)Cn1cc(S(=O)(=O)Nc2cc(F)ccc2F)c2cccnc21`, 994 s.
As for `COC(=O)c1c(NCC2CC2)c2cccc(Cl)c2[nH]c1=O`, the figure is 757 s.
Take `CCN(CC)c1nc2ccsc2c(=O)n1CCC(=O)NCc1ccc(F)cc1F`: the RP-LC retention time is 848 s.
As for `CSc1ccccc1NC(=O)c1ccc(-n2cccn2)nn1`, the figure is 609 s; as for `COc1ccc(C(=O)NCCc2ccc(S(N)(=O)=O)cc2)nn1`, 604 s.
For the compound `O=C(CN1CC=C(c2cnn(-c3ccccc3)c2)CC1)NCc1ccco1`, the RP-LC retention time was 646 s.
As for `COC(=O)c1c(C)[nH]c(C(=O)N2CCC(CC(=O)NCc3ccccc3)CC2)c1C`, the figure is 716 s; as for `O=C(CN1C(=O)C2CCCCN2c2ccc(C(=O)N3CCCC3)cc21)NCC1COCCO1` (stereo unspecified), 627 s.
In the case of `Cc1cc(C(=O)N2CCN(c3cccc(Cl)c3)CC2)n(-c2ccccc2)n1` it was 1070 s; in that of `Cc1ccc(F)cc1S(=O)(=O)NC1CCN(c2ccccc2)C1=O` (stereo unspecified), 928 s; in that of `Cc1cccc(OCC(=O)N2CCN(S(=O)(=O)c3c(C)nn(C(C)C)c3C)CC2)c1`, 904 s.
In the case of `CCCn1cc(C(=O)Nc2cc(OC)cc(OC)c2)c(=O)c2ccc(C)nc21` it was 1170 s; in that of `N#Cc1cc2c(nc1SCC(=O)N1CCOCC1)CCCC2`, 798 s; in that of `COC[C@@H]1CN(c2cnccn2)C[C@H]1C(=O)NCc1cc(C)nn1C`, 563 s.
For the compound `Cc1cc(C)cc(Nc2nc(C)cc3nn(CC(=O)N4CCC(C)CC4)c(=O)n23)c1`, the RP-LC retention time was 1160 s.
As for `CCC1CCCCN1Cc1nc(Cn2ccn3nc(-c4ccc(OC)cc4)cc3c2=O)no1` (stereo unspecified), the figure is 679 s; as for `Cc1ccc(NC(=O)c2c(O)c3cccnc3n(-c3ccc(F)cc3)c2=O)cc1F`, 1340 s; as for `Cc1ccc2[nH]cc(CCN3CC(C(=O)NCCN4CCOCC4)CC3=O)c2c1` (stereo unspecified), 602 s.
In the case of `COc1ccc(Cl)cc1C(=O)N1CCN(c2cc(-c3cccs3)[nH]n2)CC1` it was 812 s.
`COc1ccc(NC(=O)CN2C(=O)NC3(CCC(C)CC3)C2=O)cc1OC` (stereo unspecified) had an RP-LC retention time of 720 s.
In the case of `COC(=O)c1cc(S(=O)(=O)N2CCCC2C(=O)Nc2ccc(F)cc2Cl)cn1C` (stereo unspecified) it was 938 s.
As for `CC(C)Cn1c(=O)c(C(=O)NCc2ccccc2C(F)(F)F)nc2cccnc21`, the figure is 1070 s; as for `CCOC(=O)C1CCN(S(=O)(=O)c2ccc3onc(C(=O)N4CCCC4)c3c2)CC1`, 993 s; as for `COCCCNC(=O)Cn1c(=O)c(S(=O)(=O)c2ccccc2)cc2ccccc21`, 705 s.
`COc1ccc(-c2nnc(-c3ccc(C)c(S(=O)(=O)NC(C)(C)C)c3)o2)cc1OC` displayed an RP-LC retention time of 941 s.
Regarding `CCC(=O)NCCc1c[nH]c2ccc(Cl)cc12`, the RP-LC retention time came out at 743 s.
In the case of `Cc1ccc(NC(=O)CSc2nnc3c4cc(-c5ccc(F)cc5)nn4ccn23)cc1Cl` it was 1010 s; in that of `O=C(CC1COc2ccccc2NC1=O)Nc1ccc(F)c(Cl)c1` (stereo unspecified), 788 s.

The record behind these values is the METLIN SMRT retention time set (Domingo-Almenara et al. 2019).
